Laboratory results taken from patent publication US20190127707A1, “MEDIUM FOR CULTURING NAIVE PLURIPOTENT STEM CELLS AND METHOD FOR CULTURING PLURIPOTENT STEM CELLS” (KYOWA HAKKO BIO CO., LTD., priority 2016, published 2019).

Key:
Tic-FX cells [1] = test: Real-time PCR of pluripotency markers in cells proliferated with inhibitors; format: cell-based, human; details: 40 ng/mL FGF2, versus control Tic-FX
Text: Cells cultured in the basal medium were used as the control (indicated by Tic-FX in FIG. 7A and FIG. 7B).

Tic-FX cells [2] = test: Culturing of iPS cells in the presence of low molecular weight compounds (cell count); format: cell-based, human; details: 40 ng/mL FGF2, five days
Method: Media were produced by adding 1 μM of Y-27632, 20 ng/mL of LIF and 40 ng/mL of FGF2 to the basal medium, and media were produced by adding the following inhibitors to the media at concentrations of 1 μM (PD0325901), 0.3 μM (CHIR99021), 0.5 μM (SB590885), 1 μM (WH-4-023), 10 μM (SP600125), 10 μM (SB203580), 5 μM (Go6983), 5 μM (GF109203X), 2 μM (Porsomorphin) or 400 ng/mL (Noggin) each. The Tic-FX cells were proliferated in suspension culture in ultra-low attachment 6-well plates (manufactured by Coming Incorporated) containing the media in the presence of 10% CO2 at 37° C. The cells were cultured for five days, and the cells were counted. In FIG. 6, “−” indicates the results using the medium to which no inhibitor was added.

Tic-FX cells [3] = test: Influence on proliferation of iPS cells in the presence of ROCK inhibitor (suspension culture); format: cell-based, human; details: Y-27632 at 1 μM, 3 μM or 10 μM in hESF-FX medium
Method: In the following Examples, a medium obtained by mixing the following components in the amounts shown in Table 1 which had been sterilized with a […] into mESF Basal Medium (manufactured by Wako Pure Chemical Industries, Ltd., 136-17805) was used as hESF-FX medium. As the iPS cells, Tic-FX cells [a cell line obtained by conditioning iPS cells, line Tic (JCRB1331) to a feeder-free xeno-free culture (FX)] were used. A ROCK inhibitor (Y-27632) was dissolved in the hESF-FX medium at 1 μM, 3 μM or 10μM. The media each in an amount of 3 mL were put into an ultra-low attachment 6-well plate (manufactured by Corning Incorporated), and the Tic-FX cells were cultured in the presence of 10% CO2 at 37° C. (suspension culture). The plate was observed after one day, three days and five days of cultivation. […] The numbers of the cells per well and the viability of the cells were measured after five days of cultivation.

Tic-FX cells [4] = test: Real-time PCR of undifferentiation, naive type-specific and differentiation marker genes in cells of Example 1; format: cell-based, human; details: five days, relative to GAPDH; for expression level of NCAM / expression level of naive type-specific STELLA gene: versus control; for expression level of NANOG / expression level of OCT3/4: versus control Tic-FX
Method: The expression of marker genes was examined by real-time PCR. Real-time PCR was conducted using a real-time PCR system (7300 manufactured by Applied Biosystems) by the following reaction procedures using the following primers. 95° C. 30 seconds→[(95° C. 5 seconds→60° C. 31 seconds)×40 cycles]→Melting Cycle Using the cells cultured in Example 1, the expression levels of NANOG and OCT3/4, which are undifferentiation marker genes, […], which is a naive type-specific marker gene, and NCAM, which is a neuronal differentiation-specific marker gene, in the cells after five days of cultivation were examined by the real-time PCR. In FIG. 3A to FIG. 3D, the vertical axes each indicate the ratio of the expression level of the target gene of the sample to that of GAPDH (glyceraldehyde-3-phosphate dehydrogenase), which was used as the internal standard. Specifically, the values in the graphs each mean the relative value (unit is fold) of the DNA amount before the amplification determined from the difference between the Cp value of GAPDH and the Cp value of the target gene. Here, the internal standard is a gene whose expression level is always constant independently of the state of the cells. The Cp value is the number of cycles which are necessary to amplify DNA to the amount that can be detected with a measurement device when the DNA is amplified by PCR reaction (theoretically, the DNA amount doubles in one cycle).

human iPS cells = details: added to the medium; cells dispersed into single cells or clusters of several to several dozen cells; cited from earlier work
[5] = 0.3 μM added to medium with 1 μM Y-27632, 20 ng/mL LIF
[6] = 400 ng/mL added to medium with 1 μM Y-27632, 20 ng/mL LIF

Molecule: Cc1c[nH]c(-c2cnc(NCCNc3ccc(C#N)cn3)nc2-c2ccc(Cl)cc2Cl)n1 [CHIR99021, 6-{2-[4-(2,4-dichloro-phenyl)-5-(4-methyl-1H-imidazol-2-yl)-pyrimidin-2-ylamino]-ethylamino}-nicotinonitrile]
- expression level of NANOG (Tic-FX cells [1]; [5]): increased
- expression level of OCT3/4 (Tic-FX cells [1]; [5]): increased
- growth rate of the cells (Tic-FX cells [2]; [5]): high

Molecule: C[C@@H](N)[C@H]1CC[C@H](C(=O)Nc2ccncc2)CC1.Cl.Cl [Y-27632, (+)-(R)-trans-4-(1-aminoethyl)-N-(4-pyridyl)cyclohexanecarboxamide dihydrochloride]
- number of the cells per well (Tic-FX cells [3]; after five days of cultivation): increased as the concentration of the ROCK inhibitor was higher
- viability of the cells (Tic-FX cells [3]; after five days of cultivation): increased as the concentration of the ROCK inhibitor was higher
- number of the cells (micrographs, FIG. 1A and FIG. 1B) (Tic-FX cells [3]; observed after one, three and five days): increased as the concentration of the ROCK inhibitor was higher
- expression level of NCAM (Tic-FX cells [4]; 1 μM): almost the same as that of the control
- expression level of naive type-specific STELLA gene (Tic-FX cells [4]; 1 μM): higher than that of the control
- expression level of NANOG (Tic-FX cells [4]; 1 μM): higher than those of the control
- expression level of OCT3/4 (Tic-FX cells [4]; 1 μM): higher than those of the control
- expression level of NCAM (Tic-FX cells [4]; 3 μM): higher than that of the control
- expression level of naive type-specific STELLA gene (Tic-FX cells [4]; 3 μM): higher than that of the control
- expression level of NANOG (Tic-FX cells [4]; 3 μM): higher than those of the control
- expression level of OCT3/4 (Tic-FX cells [4]; 3 μM): higher than those of the control
- expression level of NCAM (Tic-FX cells [4]; 10 μM): higher than that of the control
- expression level of naive type-specific STELLA gene (Tic-FX cells [4]; 10 μM): slightly higher than that of the control
- expression level of NANOG (Tic-FX cells [4]; 10 μM): lower than those of the control
- expression level of OCT3/4 (Tic-FX cells [4]; 10 μM): lower than those of the control
- apoptosis of human iPS cells (human iPS cells): suppresses the apoptosis
- intercellular adhesion (human iPS cells): promotes the intercellular adhesion

B1: Noggin: Noggin, Recombinant Human, manufactured by R&D Systems; endogenous protein that inhibits BMP (protein, UniProt Q13253 28-232, looked up)
Noggin: QHYLHIRPAPSDNLPLVDLIEHPDPIFDPKEKDLNETLLRSLLGGHYDPGFMATSPPEDRPGGGGGAAGGAEDLAELDQLLRQRPSGAMPSEIKGLEFSEGLAQGKKQRLSKKLRRKLQMWLWSQTFCPVLYAWNDLGSRFWPRYVKVGSCFSKRSCSVPEGMVCKPSKSVHLTVLRWRCQRRGGQRCGWIPIQYPIISECKCSC
- expression level of NANOG (Tic-FX cells [1]; [6]): increased
- expression level of OCT3/4 (Tic-FX cells [1]; [6]): increased
- growth rate of the cells (Tic-FX cells [2]; [6]): high
